The numbers were not newly measured in patent publication US5565606A, “Synthesis of peptide aminoalkylamides and peptide hydrazides by the solid-phase method” (Hoechst Aktiengesellschaft, priority 1986, dated 1996), which cites them from elsewhere.

Where two headings read alike, the source gives them in different places.

One series relates to urge to groom and move. The following applies: rats, from EP-A 179 332.
The test system of series [1] is choline content in the striatum. The following applies: rats, s.c. administration of 10 μg; from EP-A 179 332.
The test system of series [2] is amnesia induced by electric shock or scopolamine. The following applies: s.c. administration, mice; from EP-A 179 332.

Turning to “benzyloxycarbonyl-D-Lys-Phe-NH-(CH2)8 -NH2.2HCl”, the “urge to groom and move” value in the series with urge to groom and move (i.c.v. administration of 1 μg) is reported as “the same action”.

As to benzyloxycarbonyl-Lys-Phe-OMe, in the series with urge to groom and move (i.c.v. administration of 10 μg), the “urge to groom and move” value is “cause the urge to groom and move”. Also, the “choline content in the striatum” value in series [1] is given as “increased”.

For the substance “Met(O)-Glu-His-Phe-D-Lys-Phe-NH-(CH2)8 -NH2”, the “minimum effective dose, weakening of amnesia” value in series [2] was 0.03 µg/kg.
